Columns and labels:
[1] = target: DNA-3-methyladenine glycosylase (Homo sapiens) (UniProt P29372); details: Compound Concentration 10.0 uM, Hit No;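 also: enzyme assay where MPG cuts a quenched duplex DNA oligonucleotide probe, paired with APE1 for strand incision and turnover, read as fluorescence at 594 nm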
Description: Inhibition of MPG by quantifying inhibition of MPG-mediated cleavage and dissociation of quenched duplex DNA oligonucleotides, measured as fluorescence at 594 nm. To generate a functional strand incision and increase turn-over this assay is coupled to APE1.

[2] = target: Endonuclease 8-like 1 (Homo sapiens) (UniProt Q96FI4); details: Compound Concentration 10.0 uM, Hit No;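 also: fluorescence at 594 nm from quenched duplex DNA oligonucleotides released by NEIL1 cleavage and strand separation, reported as reduction of this enzyme activity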
Description: Inhibition of NEIL1 by quantifying inhibition of NEIL1-mediated cleavage and dissociation of quenched duplex DNA oligonucleotides, measured as fluorescence at 594 nm.

[3] = target: T1, Endonuclease 8-like 2 (Homo sapiens) (UniProt Q969S2); details: Compound Concentration 10.0 uM;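 also: fluorescence at 594 nm reports NEIL2 cutting and release of a quenched double-stranded DNA oligo substrate, reduced signal read as inhibition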
T1 sequence (whole entry): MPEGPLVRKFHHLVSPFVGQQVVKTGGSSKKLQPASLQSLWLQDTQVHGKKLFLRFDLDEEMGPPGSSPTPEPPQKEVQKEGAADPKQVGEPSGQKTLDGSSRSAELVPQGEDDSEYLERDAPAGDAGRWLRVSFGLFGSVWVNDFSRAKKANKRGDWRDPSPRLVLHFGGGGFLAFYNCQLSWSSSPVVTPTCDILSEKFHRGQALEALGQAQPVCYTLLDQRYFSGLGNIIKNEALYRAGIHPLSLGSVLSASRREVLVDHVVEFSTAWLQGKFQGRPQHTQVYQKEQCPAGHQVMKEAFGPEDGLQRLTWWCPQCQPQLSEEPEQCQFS
Description: Inhibition of NEIL2 by quantifying inhibition of NEIL2-mediated cleavage and dissociation of quenched duplex DNA oligonucleotides, measured as fluorescence at 594 nm.

[4] = target: T2, Endonuclease III-like protein 1 (Homo sapiens) (UniProt P78549); details: Compound Concentration 10.0 uM, Hit No;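 also: enzyme assay tracking NTHL1 cutting and release of a quenched double-stranded DNA oligo substrate, read as fluorescence at 594 nm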
T2 sequence (whole entry): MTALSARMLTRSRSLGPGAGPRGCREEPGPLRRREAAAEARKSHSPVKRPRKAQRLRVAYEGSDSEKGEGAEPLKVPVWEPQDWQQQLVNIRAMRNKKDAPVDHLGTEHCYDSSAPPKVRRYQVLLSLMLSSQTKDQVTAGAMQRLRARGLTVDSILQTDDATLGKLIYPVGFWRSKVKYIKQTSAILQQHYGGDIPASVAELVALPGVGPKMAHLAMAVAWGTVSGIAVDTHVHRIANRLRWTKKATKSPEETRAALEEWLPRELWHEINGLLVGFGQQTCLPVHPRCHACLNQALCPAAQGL
Description: Inhibition of NTHL1 by quantifying inhibition of NTHL1-mediated cleavage and dissociation of quenched duplex DNA oligonucleotides, measured as fluorescence at 594 nm.

[5] = target: N-glycosylase/DNA lyase (Homo sapiens) (UniProt O15527); details: Compound Concentration 10.0 uM, Hit No;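 also: OGG1 cleavage of a quenched duplex DNA oligonucleotide, coupled to APE1 for strand incision, read as fluorescence at 594 nm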
Description: Inhibition of OGG1 by quantifying inhibition of OGG1-mediated cleavage and dissociation of quenched duplex DNA oligonucleotides, measured as fluorescence at 594 nm. To generate a functional strand incision and increase turn-over this assay is coupled to APE1.

[6] = target: G/T mismatch-specific thymine DNA glycosylase (Homo sapiens) (UniProt Q13569); details: Compound Concentration 10.0 uM, Hit No;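 also: human TDG cleavage of quenched duplex DNA oligonucleotides coupled to APE1, strand release read as fluorescence at 594 nm, inhibition of TDG activity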
Description: Inhibition of TDG by quantifying inhibition of TDG-mediated cleavage and dissociation of quenched duplex DNA oligonucleotides, measured as fluorescence at 594 nm. To generate a functional strand incision and increase turn-over this assay is coupled to APE1.

[7] = target: Uracil-DNA glycosylase (Homo sapiens) (UniProt P13051); details: Compound Concentration 10.0 uM, Hit No;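 also: UNG excision on a quenched double-stranded DNA oligo probe, with APE1 added for strand incision and turnover, read as fluorescence at 594 nm as strands separate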
Description: Inhibition of UNG by quantifying inhibition of UNG-mediated cleavage and dissociation of quenched duplex DNA oligonucleotides, measured as fluorescence at 594 nm. To generate a functional strand incision and increase turn-over this assay is coupled to APE1.

[8] = target: T3, Single-strand selective monofunctional uracil DNA glycosylase (Homo sapiens) (UniProt Q53HV7); details: Compound Concentration 10.0 uM, Hit No;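 also: enzymatic SMUG1 assay coupled with APE1, reading fluorescence at 594 nm released when a quenched double-stranded DNA oligonucleotide substrate is cleaved and separated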
T3 sequence (whole entry): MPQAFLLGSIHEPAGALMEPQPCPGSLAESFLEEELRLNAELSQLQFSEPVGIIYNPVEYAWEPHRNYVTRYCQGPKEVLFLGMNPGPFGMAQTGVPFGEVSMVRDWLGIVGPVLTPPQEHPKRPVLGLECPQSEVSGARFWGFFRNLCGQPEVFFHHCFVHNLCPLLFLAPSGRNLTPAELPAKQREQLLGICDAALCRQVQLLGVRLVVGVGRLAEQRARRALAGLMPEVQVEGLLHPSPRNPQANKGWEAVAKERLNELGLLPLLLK
Description: Inhibition of SMUG1 by quantifying inhibition of SMUG1-mediated cleavage and dissociation of quenched duplex DNA oligonucleotides, measured as fluorescence at 594 nm. To generate a functional strand incision and increase turn-over this assay is coupled to APE1.

[9] = target: Methyl-CpG-binding domain protein 4 (Homo sapiens) (UniProt O95243); details: Compound Concentration 10.0 uM;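 also: MBD4 activity read as fluorescence at 594 nm from cleavage and release of a quenched duplex DNA oligonucleotide, with APE1 coupled to incise the strand and raise turnover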
Sequence of Methyl-CpG-binding domain protein 4 (Homo sapiens) (O95243 whole entry, the tested form may be a part): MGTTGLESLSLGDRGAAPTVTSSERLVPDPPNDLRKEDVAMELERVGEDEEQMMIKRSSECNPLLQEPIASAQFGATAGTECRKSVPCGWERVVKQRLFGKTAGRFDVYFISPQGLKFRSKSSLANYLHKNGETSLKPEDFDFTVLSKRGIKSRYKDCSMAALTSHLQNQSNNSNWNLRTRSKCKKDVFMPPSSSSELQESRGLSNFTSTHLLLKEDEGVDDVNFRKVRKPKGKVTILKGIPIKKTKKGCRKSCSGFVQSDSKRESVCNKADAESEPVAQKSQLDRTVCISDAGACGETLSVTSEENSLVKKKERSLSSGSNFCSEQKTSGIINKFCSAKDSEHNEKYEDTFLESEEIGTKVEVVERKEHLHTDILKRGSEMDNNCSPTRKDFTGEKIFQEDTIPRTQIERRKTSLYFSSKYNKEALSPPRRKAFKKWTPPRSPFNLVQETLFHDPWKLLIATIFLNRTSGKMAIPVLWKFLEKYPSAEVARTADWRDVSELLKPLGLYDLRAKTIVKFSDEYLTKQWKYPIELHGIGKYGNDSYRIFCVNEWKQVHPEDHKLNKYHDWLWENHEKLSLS
Description: Inhibition of MBD4 by quantifying inhibition of MBD4-mediated cleavage and dissociation of quenched duplex DNA oligonucleotides, measured as fluorescence at 594 nm. To generate a functional strand incision and increase turn-over this assay is coupled to APE1.

Sequence of DNA-3-methyladenine glycosylase (Homo sapiens) (P29372 whole entry): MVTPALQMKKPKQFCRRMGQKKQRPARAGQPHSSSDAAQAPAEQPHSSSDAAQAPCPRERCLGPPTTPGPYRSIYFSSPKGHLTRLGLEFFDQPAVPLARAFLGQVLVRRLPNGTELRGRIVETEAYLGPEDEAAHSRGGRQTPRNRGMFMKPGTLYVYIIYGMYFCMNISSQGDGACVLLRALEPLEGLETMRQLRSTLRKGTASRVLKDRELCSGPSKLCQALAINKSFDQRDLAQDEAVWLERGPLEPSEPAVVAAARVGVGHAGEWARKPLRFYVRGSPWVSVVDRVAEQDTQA
Sequence of Uracil-DNA glycosylase (Homo sapiens) (P13051 whole entry): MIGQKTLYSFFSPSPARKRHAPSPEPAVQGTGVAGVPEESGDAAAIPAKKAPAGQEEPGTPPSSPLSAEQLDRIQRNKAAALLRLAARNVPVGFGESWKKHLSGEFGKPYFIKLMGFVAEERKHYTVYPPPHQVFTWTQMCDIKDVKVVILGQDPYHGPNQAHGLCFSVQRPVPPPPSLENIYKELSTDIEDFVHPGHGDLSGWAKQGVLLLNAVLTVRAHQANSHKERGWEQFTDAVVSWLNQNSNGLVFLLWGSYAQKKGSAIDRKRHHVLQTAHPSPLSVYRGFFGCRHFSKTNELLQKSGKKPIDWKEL
Sequence of G/T mismatch-specific thymine DNA glycosylase (Homo sapiens) (Q13569 whole entry): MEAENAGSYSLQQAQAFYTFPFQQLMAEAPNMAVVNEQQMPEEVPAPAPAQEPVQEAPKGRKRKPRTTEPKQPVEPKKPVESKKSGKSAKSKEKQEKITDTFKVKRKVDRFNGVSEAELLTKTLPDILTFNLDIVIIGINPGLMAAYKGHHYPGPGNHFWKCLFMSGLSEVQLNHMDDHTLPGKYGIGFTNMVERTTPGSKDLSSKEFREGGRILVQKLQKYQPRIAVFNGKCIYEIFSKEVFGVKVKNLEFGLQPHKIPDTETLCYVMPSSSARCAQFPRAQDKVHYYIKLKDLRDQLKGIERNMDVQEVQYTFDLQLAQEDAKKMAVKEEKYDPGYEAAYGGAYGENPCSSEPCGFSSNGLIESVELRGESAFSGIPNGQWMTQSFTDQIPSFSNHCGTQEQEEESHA
Sequence of Endonuclease 8-like 1 (Homo sapiens) (Q96FI4 whole entry): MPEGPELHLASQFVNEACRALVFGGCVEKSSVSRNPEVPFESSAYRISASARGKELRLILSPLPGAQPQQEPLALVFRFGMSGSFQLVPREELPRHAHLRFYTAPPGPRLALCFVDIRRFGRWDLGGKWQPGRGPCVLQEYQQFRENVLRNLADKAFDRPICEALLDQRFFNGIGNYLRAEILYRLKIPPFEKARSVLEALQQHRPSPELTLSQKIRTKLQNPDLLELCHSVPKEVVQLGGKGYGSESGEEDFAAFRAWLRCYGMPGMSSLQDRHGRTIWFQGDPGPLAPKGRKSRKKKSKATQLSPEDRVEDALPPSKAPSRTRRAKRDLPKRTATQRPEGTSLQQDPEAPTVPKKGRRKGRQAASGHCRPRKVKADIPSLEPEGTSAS
Sequence of N-glycosylase/DNA lyase (Homo sapiens) (O15527 whole entry): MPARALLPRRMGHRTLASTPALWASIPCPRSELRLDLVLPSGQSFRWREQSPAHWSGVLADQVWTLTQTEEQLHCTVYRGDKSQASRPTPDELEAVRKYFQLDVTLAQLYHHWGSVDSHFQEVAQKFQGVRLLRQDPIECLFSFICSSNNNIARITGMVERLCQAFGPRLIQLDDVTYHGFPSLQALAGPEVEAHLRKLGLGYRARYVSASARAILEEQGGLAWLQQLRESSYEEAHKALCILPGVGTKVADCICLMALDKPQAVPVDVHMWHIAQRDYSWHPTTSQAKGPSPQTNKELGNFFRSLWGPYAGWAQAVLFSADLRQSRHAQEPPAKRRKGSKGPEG

Row | SMILES | inhibition [1] | inhibition [2] | inhibition ([3]; Hit No) | inhibition [4] | inhibition [5] | inhibition [6] | inhibition ([3]; Hit Yes) | inhibition [7] | inhibition [8] | inhibition ([9]; Hit No) | inhibition ([9]; Hit Yes)
1 | CSc1nc(NC2CCCC2)c([N+](=O)[O-])c(NC2CCCC2)n1 | -2.56% | 2.61% | 7.5% | 21% | -2.94% | 7.68% |  |  |  |  | 
2 | COC(=O)[C@H](CCCN=C(N)N)NC(=O)CCCc1c(-c2ccccc2)[nH]c2c(F)cc(F)cc12 | 5.31% | 5.58% |  | -5.41% | -3.54% | 16.3% | 38.2% | -5.65% |  |  | 
3 | O=C(NCC1(N2CCN(c3ccccc3)CC2)CCOCC1)c1cccnc1Sc1ccccc1 | 1.32% | -4.14% | -7.99% | 23.7% |  | -0.15% |  | 1.03% | 2.13% |  | 
4 | CN1[C@@H](CC(=O)c2ccccc2)CCC[C@H]1C[C@H](O)c1ccccc1 | -4.83% | 1.64% |  | -8.51% | -6.7% | -5.94% |  | -4.79% | 1.46% |  | 
5 | C[C@H](CO)Nc1nc(SCc2cccc(Cl)c2F)nc2[nH]c(=O)sc12 | 2.92% | 8.99% | -2.98% |  | 5.5% | 22% |  | -8.73% | 6.22% | 13.6% | 
6 | CC1CCN(CC[C@H]2CCCN2S(=O)(=O)c2cccc(O)c2)CC1 | -7.22% | 8.25% | -5.22% |  | -3.4% | 2.43% |  | -9.71% | 3.5% | 6.36% | 
7 | OCc1cc(C(O)CNCCCCCCOCCCCc2ccccc2)ccc1O (configuration not stated) | 0.951% | 8.39% | 4.01% | 11.4% | -5.95% | 6.25% |  | -9.38% |  |  | 
8 | CC[C@H]1CN2CCc3cc(OC)c(OC)cc3[C@@H]2C[C@@H]1C[C@H]1NCCc2cc(OC)c(OC)cc21 | -9.31% | -0.5% | 4.51% | 3.39% |  | -0.514% |  |  | -7.35% |  | 
9 | Cc1nn(C)c(C)c1-c1cccc2c1CC[C@H](N(C)C)C2 | -9.58% | 1.87% | -0.234% | 6.32% | -7.75% | -4.55% |  |  |  |  | 
10 | CS(=O)(=O)c1ccc(C(=O)Nc2ccc(Cl)c(-c3ccccn3)c2)c(Cl)c1 | 3.65% | 3.5% | 5.76% | -9.8% |  | 6.01% |  |  |  |  | 
11 | N#Cc1c[nH]c2c(C(=O)N3CCN(CCc4ccc(F)cc4)CC3)cccc12 | -7.3% |  | -4.73% | -5.41% | -8.41% |  |  | -9.6% | -8.12% |  | 
12 | C[C@H](CCC(=O)O)[C@H]1CC[C@H]2[C@@H]3CC[C@@H]4C[C@H](O)CC[C@]4(C)[C@H]3CC[C@]12C | 15.2% | 10% | 8% |  | 4.17% | 21.8% |  | -8.43% | -9.19% |  | 140%
13 | N#Cc1c(Oc2cccc(OS(=O)(=O)CCCC(F)(F)F)c2)cccc1C(F)(F)F | 8.15% |  | -7.74% | -1.91% | -7.69% | -4.05% |  | -1.27% |  |  | 

From ChEMBL document CHEMBL5665443, “Enzyme Inhibitor Single Concentration assay results for EUbOPEN Chemogenomics Library” (2024)
